Several values for one entry are separate records, joined by “and”; a condition that tells them apart may be missing. Equal entries are not always repeated.
Tests used:
[1] = tested on: auricle of hairless mouse (HR-1, female); assay: External blood circulation enhancing action: vasodilatory effect (red spots) on auricle of hairless mouse; assay type: in vivo; design: key to Vasodilatory effect for hairless mouse (red spots, visual): ◯: clear red spots can be confirmed; Δ: weak red spots can be confirmed; x: no development of red spots; settings: for Vasodilatory effect for hairless mouse (red spots, visual): applied to right ear; for Vasodilating effect: 5 wt % solution, solvents as in Tables 2 and 3
Protocol: The compound of each Example and capsaicin analog were compared for vasodilatory effect using auricle of hairless mouse. [Test method] A sample was applied to the right ear of hairless mouse (HR-1, female), and a control was applied to the left ear. Presence or absence of red spots development was visually evaluated, and evaluated according to the following indices. ◯: clear red spots can be confirmed Δ: weak red spots can be confirmed x: no development of red spots The samples were dissolved in liquid paraffin or ethanol. samples: Control: liquid paraffin or ethanol

[2] = Stability on contact with silica gel, yield (recovery rate) of PTLC purification as index; assay type: physicochemical
Protocol: Using vanillyl alcohol (1.70 g, 11.0 mmol) instead of piperonyl alcohol, and n-decanoic acid (1.72 g, 10 mmol) instead of 8-methylnonanoic acid in Example 1, a reaction similar to Example 1 was performed.
Using the yield (recovery rate) of purification by silica gel chromatography (PTLC) as an index, the stability of each Example compound was confirmed.

Yield (recovery rate) after purification by PTLC, index of stability [2] | SMILES | Vasodilatory effect for hairless mouse (red spots, visual) ([1]; 5 wt % in ethanol) | Vasodilatory effect for hairless mouse (red spots, visual) ([1]; 5 wt % in liquid paraffin) | Stability on purification by PTLC (contact with silica gel), in words [2] | Vasodilating effect [1] | also measured
– | COc1cc(CNC(=O)CCCC/C=C/C(C)C)ccc1O [capsaicin, reference compound] | ∘ | ∘ | – | – | Vasodilatory effect for hairless mouse (red spots, visual) ([1]; 1 wt % in liquid paraffin): ∘
– | COc1cc(COC(=O)CCCC/C=C/C(C)C)ccc1O [capsiate, 4-hydroxy-3-methoxybenzyl (E)-8-methyl-6-nonenoate, reference compound] | ∘ | ∘ | – | – | Vasodilatory effect for hairless mouse (red spots, visual) ([1]; 1 wt % in liquid paraffin): Δ
84.3% | CC(C)CCCCCCC(=O)OCc1ccc2c(c1)OCO2 [compound A, Piperonyl 8-methylnonanoate] | – | Δ | stabler than vanillyl decanoate even upon contact with silica gel | weak vasodilating effect | –
– | CC(C)CCCCCC(=O)OCc1ccc2c(c1)OCO2 [compound A-1, Piperonyl 7-methyloctanoate] | x | x | – | did not show a vasodilating effect | –
– | CC(C)CCCCC(=O)OCc1ccc2c(c1)OCO2 [compound A-2, Piperonyl 6-methylheptanoate] | x | x | – | did not show a vasodilating effect | –
81.0% | COc1ccc(COC(=O)CCCCCCC(C)C)cc1O [compound B, Isovanillyl 8-methylnonanoate] | – | ∘ | not decomposed even after purification by PTLC | strong vasodilating effect | –
– | COc1ccc(COC(=O)CCCCCC(C)C)cc1O [compound B-1, Isovanillyl 7-Methyloctanoate] | – | Δ | – | weak vasodilating effect | –
– | CCC(C)CCCCCC(=O)OCc1ccc(OC)c(O)c1 (stereo not shown) [compound B-2, Isovanillyl 7-methyl Nonanoate] | ∘ | x | – | – | Vasodilatory effect in words ([1]; 5 wt % in ethanol): vasodilatory effect was observed; Vasodilatory effect in words ([1]; 5 wt % in ethanol, listed as Compound B-2): showed a vasodilating effect; Vasodilatory effect, note in words (onset, duration) ([1]; 5 wt % in liquid paraffin): did not show a vasodilating effect
90.2% | COc1ccc(COC(=O)CCCCCCC(C)C)cc1 [compound C, 4-methoxybenzyl 8-methylnonanoate] | – | ∘ | not decomposed even after purification by PTLC | strong vasodilating effect | –
– | COc1ccc(COC(=O)CCCCCC(C)C)cc1 [compound C-1, 4-methoxybenzyl 7-methyloctanoate] | – | Δ | – | weak vasodilating effect | –
– | CCC(C)CCCCC(=O)OCc1ccc(OC)cc1 (stereo not shown) [compound C-2, 4-methoxybenzyl 6-methyloctanoate] | x | x | – | did not show a vasodilating effect | –
89.1% | COc1ccc(COC(=O)CCCCCCC(C)C)cc1OC [compound D, Veratryl 8-methylnonanoate] | – | x | not decomposed even after purification by PTLC | did not show a vasodilating effect | –
– | CC(C)CCCCCCC(=O)OCc1ccc(O)cc1 [compound F, 4-hydroxybenzyl 8-methylnonanoate] | – | Δ | – | weak vasodilating effect | –
– | COc1cc(COC(=O)CCCC/C=C/C(C)C)ccc1OC(C)=O [compound G-1, 4-acetoxy-3-methoxybenzyl (E)-8-methyl-6-nonenoate] | – | ∘ | – | strong vasodilating effect | –
– | CCOc1cc(COC(=O)CCCCCCC(C)C)ccc1O [compound H, 3-ethoxy-4-hydroxybenzyl 8-methylnonanoate] | – | ∘ | – | clear vasodilating effect, though the expression of the effect was slow | –
– | COc1cc(COC(=O)CCCCCCC(C)C)ccc1O [dihydrocapsiate, 4-hydroxy-3-methoxybenzyl 8-methylnonanoate, reference compound] | – | ∘ | – | – | Vasodilatory effect for hairless mouse (red spots, visual) ([1]; 1 wt % in liquid paraffin): Δ
– | COc1cc(COC(=O)CCCCCC(C)C)ccc1O [nordihydrocapsiate, 4-hydroxy-3-methoxybenzyl 7-methyl-octanoate, reference compound] | – | ∘ | – | – | Vasodilatory effect for hairless mouse (red spots, visual) ([1]; 1 wt % in liquid paraffin): Δ
– | COc1cc(CO)ccc1O [vanillyl alcohol, reference compound] | x | x | – | – | –
43.1% | CCCCCCCCCC(=O)OCc1ccc(O)c(OC)c1 [vanillyl decanoate, reference compound] | – | – | decomposed by the contact with silica gel | – | –

SMILES | Yield (recovery rate) after purification by PTLC, index of stability [2] | Vasodilatory effect for hairless mouse (red spots, visual) ([1]; 5 wt % in ethanol) | Vasodilatory effect for hairless mouse (red spots, visual) ([1]; 5 wt % in liquid paraffin) | Stability on purification by PTLC (contact with silica gel), in words [2] | Vasodilating effect [1] | also measured
COc1cc(COC(=O)CCCCCCC(C)C)ccc1OC(C)=O [compound G, 4-acetoxy-3-methoxybenzyl 8-methylnonanoate] | 82.9% and 85.7% | – | ∘ | not decomposed even after purification by PTLC | strong vasodilating effect | –

— US7981460B2, “Substituted benzyl ester derivative and use thereof” (Ajinomoto Co., Inc., priority 2006, dated 2011)
